# Data: patent US6900200B2, “Tricyclic hydroxy carboxamides and derivatives thereof tocolytic oxytocin receptor antagonists” (Wyeth, priority 2001, dated 2005)
structure (smiles),measurement,value
"COc1cc(C(=O)N2Cc3ccc(C(=O)N(C)C[C@H](O)[C@@H](O)[C@@H](O)[C@H](O)CO)n3Cc3ccccc32)ccc1-c1ccccc1C(F)(F)F [Example 23, 10-{[2-Methoxy-2′-trifluoromethyl-[1,1′-biphenyl]-4-yl]carbonyl}-N-methyl-N-[(2R,3S,4R,5S)-2,3,4,5,6-pentahydroxyhexyl]-10,11-dihydro-5H-pyrrolo[2,1-c][1,4]benzodiazepine-3-carboxamide]",melting point,132 to 140 °C (dec.)
